Results: publication PMC4612778, “Limonoids from Melia azedarach Fruits as Inhibitors of Flaviviruses and Mycobacterium tubercolosis” (PLoS ONE, 2015)
≈ marks a conversion by molar mass, not a printed value. Entries after “also recorded” stand apart in the source; their conditions may differ. Where two headings read alike, the source gives them in different places.

Legend:
HIV-1 IIIB = experiment: microbe, parasite or virus in culture; assay type: cell-based, Human Immunodeficiency Virus type-1
in vitro [1] = details: human
[2] = tested on: M. tuberculosis H37Ra ATCC 25177; experiment: microbe, parasite or virus in culture; assay type: cell-based, Mycobacterium tuberculosis
WNV [3] = experiment: Adsorption assay; assay type: cell-based, west nile virus; details: BHK cells, m.o.i. 1, 0-60 min at 4°C; 15μM for 4, 20μM for 5
Reo-1 = experiment: microbe, parasite or virus in culture; assay type: cell-based, reovirus type-1
WNV [4] = experiment: Virucidal activity assay; assay type: cell-based, west nile virus; details: 45 min at 37°C, 6 and 20μM for 4, 20 and 50μM for 5
WNV [5] = experiment: microbe, parasite or virus in culture; assay type: cell-based, west nile virus
BVDV = experiment: microbe, parasite or virus in culture; assay type: cell-based, bovine viral diarrhoea virus; details: read-out: EC50 BVDV
[6] = tested on: West Nile virus, Dengue virus and Yellow Fever virus; assay type: cell-based, Flaviviridae; details: read-out: EC50 range against West Nile virus, Dengue virus and Yellow Fever virus
DENV-2 = experiment: microbe, parasite or virus in culture; assay type: cell-based, dengue virus
HSV-1 = experiment: microbe, parasite or virus in culture; assay type: cell-based, human herpes 1
YFV = experiment: microbe, parasite or virus in culture; assay type: cell-based, yellow fever virus
WNV [7] = assay type: cell-based, west nile virus; details: for Cell viability, addition at 1, 2, 4 or 8 hours post-infection: 15 μM for 4, 20 μM for 5
WNV [8] = experiment: Yield reduction assay; assay type: cell-based, west nile virus; details: BHK-21, m.o.i. 0.1, 72 hrs, 15μM for 4, 20 μM for 5
WNV [9] = experiment: microbe, parasite or virus in culture; assay type: cell-based, west nile virus; remark: listed apart in the source
[10] = tested on: human lung adenocarcinoma epithelial cell line A549; details: previous studies; cited from earlier work
M. tuberculosis = details: against M. tuberculosis; cited from earlier work
in vitro [11] = details: African green monkey (Cercopithecus aethiops)
in vitro [12] = details: cattle (Bos taurus)
in vitro [13] = details: hamster (Mesocricetus auratus)
[14] = Human immunodeficiency virus 1, IIIB, MT4, read-out: EC50 HIV-1IIIB
[15] = Mycobacterium tuberculosis, 672 h
[16] = Human alphaherpesvirus 1, Vero 76, read-out: EC50 HSV-1
[17] = Reovirus sp., BHK-21, read-out: EC50 Reo-1
[18] = Bovine viral diarrhea virus isolates and strains, MDBK, in Bos taurus
[19] = Yellow fever virus, BHK-21, read-out: EC50 YFV

O=C1Nc2ccc(Cl)cc2[C@@](C#CC2CC2)(C(F)(F)F)O1 [Efavirenz, reference compound]
EC50 (HIV-1 IIIB; [14]): 0.002 µM | CC50 (in vitro [1]): 40 µM

NNC(=O)c1ccncc1 [Isoniazid, reference compound]
MIC [2, 15]: 0.45 µM (≈ 0.0617 µg/mL)

C/C=C(\C)C(=O)O[C@@H]1CC[C@]2(C)[C@H]3CC[C@@]4(C)[C@@H]([C@@H]5C[C@H]([C@@H]6OC6(C)C)O[C@H]5O)CC[C@]4(C)C3=CC[C@H]2C1(C)C [Compound 4, 3-α-tigloyl-melianol]
CC50 (Vero-76 cells): 100 µM | WNV adsorption (virus titre) (WNV [3]): doesn’t reduce the virus titre | CC50 (BHK-21 cells): 20 µM | Cytopathic effects on BHK-21 monolayers (BHK-21 cells): did not show significant cytopathic effects | EC50 (Reo-1; read-out: EC50 Reo-1): > 20 µM | Cytotoxicity against Vero cells (Vero cells): > 500 µM | Virucidal activity (WNV infectivity) (WNV [4]): failed to affect the WNV infectivity | Virucidal activity (WNV infectivity) (WNV [4]; listed as 3-tigloyl-melianol): doesn’t affect the WNV infectivity | EC50 (WNV [5]; read-out: EC50 WNV 2hrs p.i.): > 20 µM | EC50 (WNV [5]; read-out: EC50 WNV d. i.): 3.5 µM | EC50 (BVDV): > 37 µM | EC50 [6]: 3 to 11 µM | CC50 (MT-4 cells): 27 µM | EC50 (DENV-2; read-out: EC50 DENV-2): 3 µM | EC50 (HSV-1; read-out: EC50 HSV-1): > 100 µM | EC50 (HIV-1 IIIB; read-out: EC50 HIV-1IIIB): > 27 µM | EC50 (YFV; read-out: EC50 YFV): 7 µM | CC50 (MDBK cells): 37 µM | MIC [2]: 29 µM (≈ 16.1 µg/mL) | Cell viability, addition during the infection (WNV [7]): increases the cell viability | Cell viability, pretreatment (WNV [7]): does not increase the cells viability | Cell viability, addition at 1, 2, 4 or 8 hours post-infection (WNV [7]): not more able to protect BHK-21 cells; also recorded: not more able to significantly increase the cell viability | Reduction of WNV titre (yield reduction) (WNV [8]): a reduction of virus titre was observed | EC50 (WNV [9]; read-out: EC50 WNV): 3 µM | Cytotoxicity towards A549 [10]: exhibit cytotoxicity

21-β-acetoxy-melianone [Compound 3]
CC50 (Vero-76 cells): 36 µM | CC50 (BHK-21 cells): 10 µM | EC50 (Reo-1; read-out: EC50 Reo-1): > 10 µM | EC50 (BVDV): > 22 µM | CC50 (MT-4 cells): 23 µM | EC50 (HSV-1; read-out: EC50 HSV-1): > 36 µM | EC50 (HIV-1 IIIB; read-out: EC50 HIV-1IIIB): > 23 µM | EC50 (YFV; read-out: EC50 YFV): > 10 µM | CC50 (MDBK cells): 22 µM | Cytotoxicity towards A549 [10]: exhibit cytotoxicity | MIC (M. tuberculosis): 16 µg/mL

CC1(C)O[C@H]1[C@H]1C[C@@H]([C@@H]2CC[C@]3(C)C4=CC[C@H]5C(C)(C)C(=O)CC[C@]5(C)[C@H]4CC[C@@]23C)[C@H](O)O1 [Compound 5, melianone]
CC50 (Vero-76 cells): 51 µM | WNV adsorption (virus titre) (WNV [3]): doesn’t reduce the virus titre | CC50 (BHK-21 cells): 50 µM | Cytopathic effects on BHK-21 monolayers (BHK-21 cells): did not show significant cytopathic effects | EC50 (Reo-1; read-out: EC50 Reo-1): > 50 µM | Virucidal activity (WNV infectivity) (WNV [4]): failed to affect the WNV infectivity | Virucidal activity (WNV infectivity) (WNV [4]; listed as melianone): doesn’t affect the WNV infectivity | EC50 (WNV [5]; read-out: EC50 WNV 2hrs p.i.): > 50 µM | EC50 (WNV [5]; read-out: EC50 WNV d. i.): 6.1 µM | EC50 (BVDV): > 16 µM | EC50 [6]: 3 to 11 µM | CC50 (MT-4 cells): > 100 µM | EC50 (DENV-2; read-out: EC50 DENV-2): 12 µM | EC50 (HSV-1; read-out: EC50 HSV-1): 20 µM | EC50 (HIV-1 IIIB; read-out: EC50 HIV-1IIIB): > 100 µM | EC50 (YFV; read-out: EC50 YFV): 3 µM | CC50 (MDBK cells): 16 µM | MIC [2]: >136 µM | Cell viability, addition during the infection (WNV [7]): increases the cell viability | Cell viability, pretreatment (WNV [7]): does not increase the cells viability | Cell viability, addition at 1, 2, 4 or 8 hours post-infection (WNV [7]): not more able to protect BHK-21 cells; also recorded: not more able to significantly increase the cell viability | Reduction of WNV titre (yield reduction) (WNV [8]): a reduction of virus titre was observed | Reduction of WNV titre (yield reduction) (WNV [8]; listed as melianone): Reduction of WNV titre | EC50 (WNV [9]; read-out: EC50 WNV): 11 µM | Cytotoxicity towards A549 [10]: exhibit cytotoxicity

Nc1nc2c(ncn2COCCO)c(=O)[nH]1 [Acycloguanosine, reference compound]
CC50 (in vitro [11]): > 100 µM | EC50 (HSV-1; [16]): 3 µM

C[C@@]1(O)[C@H](O)[C@@H](CO)O[C@H]1n1cnc2c(=O)[nH]c(N)nc21 [2’-C-methyl-guanosine, reference compound]
Cytopathic effects on BHK-21 monolayers (BHK-21 cells): did not show significant cytopathic effects | EC50 (Reo-1; [17]): 1 µM | CC50 (in vitro [12]): > 100 µM | EC50 (WNV [5]; West Nile virus, BHK-21, 2 h, read-out: EC50 WNV 2hrs p.i.): 1 µM | EC50 (WNV [5]; West Nile virus, BHK-21, read-out: EC50 WNV d. i.): 1 µM | EC50 (BVDV; [18]): 2 µM | EC50 (DENV-2; Dengue virus, DENV2, BHK-21, read-out: EC50 DENV-2): 1.4 µM | EC50 (YFV; [19]): 1.4 µM | Cell viability, addition during the infection (WNV [7]): increases the cell viability | EC50 (WNV [9]; West Nile virus, BHK-21, read-out: EC50 WNV): 1 µM | CC50 (in vitro [13]): 80 µM

COC(=O)[C@H](CCC=C(C)C)[C@@H]1[C@@H](O)C[C@]2(C)C3=CC[C@H]4C(C)(C)C(=O)CC[C@]4(C)[C@H]3CC[C@@]12C [Compound 2, methyl kulonate]
CC50 (in vitro [11]): 100 µM | EC50 (Reo-1; [17]): > 100 µM | CC50 (in vitro [12]): 85 µM | EC50 (BVDV; [18]): > 85 µM | EC50 (HSV-1; [16]): > 100 µM | EC50 (HIV-1 IIIB; [14]): > 35 µM | EC50 (YFV; [19]): > 100 µM | MIC [2, 15]: 70 µM (≈ 33.9 µg/mL) | Cytotoxicity towards A549 [10]: exhibit cytotoxicity | CC50 (in vitro [1]): 35 µM | CC50 (in vitro [13]): > 100 µM
